From patent publication US5475021A, “Compounds and compositions for inhibition of cyclooxygenase activity” (Vanderbilt University, priority 1993, dated 1995)
Like-named read-outs stand apart in the source and are kept apart here.

How the values were obtained:
[1] = target: T1, Holo Prostaglandin Endoperoxide Synthase (cyclooxygenase activity) (Ovis aries, UniProt P05979); assay: Instantaneous inactivation of the cyclooxygenase activity of holo PGHS (oxygen consumption); assay type: biochemical, ram (seminal vesicles); conditions: for IC50: enzyme 0.25 μM, oxygen consumption
T1 construct: PGHS was purified from ram seminal vesicles; from tissue; host or cells: ram seminal vesicles
T1 sequence (P05979 25-600): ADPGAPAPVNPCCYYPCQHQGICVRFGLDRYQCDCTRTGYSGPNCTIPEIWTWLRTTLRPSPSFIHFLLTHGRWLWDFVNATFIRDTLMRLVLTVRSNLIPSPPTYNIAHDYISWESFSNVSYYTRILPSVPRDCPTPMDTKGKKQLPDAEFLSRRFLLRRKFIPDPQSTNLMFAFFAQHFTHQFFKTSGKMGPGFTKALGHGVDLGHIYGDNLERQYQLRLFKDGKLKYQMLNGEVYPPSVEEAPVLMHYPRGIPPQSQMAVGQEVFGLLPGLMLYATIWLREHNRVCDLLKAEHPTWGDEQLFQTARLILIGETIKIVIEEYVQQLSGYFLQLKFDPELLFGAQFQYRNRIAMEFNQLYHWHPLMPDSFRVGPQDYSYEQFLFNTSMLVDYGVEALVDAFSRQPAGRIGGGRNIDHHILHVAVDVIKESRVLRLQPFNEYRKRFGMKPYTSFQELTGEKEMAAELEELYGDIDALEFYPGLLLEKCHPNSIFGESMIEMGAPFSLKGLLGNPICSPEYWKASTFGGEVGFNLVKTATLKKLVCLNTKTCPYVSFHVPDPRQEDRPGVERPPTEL
Experimental: (§1) PGHS was purified from ram seminal vesicles.
(§2) Oxygen consumption was measured at 37° C. with a Gilson model 5/6 oxygraph equipped with a clark electrode and a thermostatted cuvette. Enzyme aliquots were added to 100 mM Tris-HCl at pH 8 containing 500 μM phenol and […] hematin. Oxygen uptake was initiated by the addition of 100 mM sodium arachidonate, and the initial reaction velocity was determined from the linear portion of the oxygen uptake curve.
The reaction mixture was allowed to reconstitute for 1 min and then varying inhibitor concentration were added to the reaction mixture. As quickly as possible, the cyclooxygenase reaction was initiated by the addition of 100 mM sodium arachidonate. […]

[2] = target: T2, holo PGHS (cyclooxygenase activity) (Ovis aries, UniProt P05979); assay: Time dependent inactivation of cyclooxygenase activity; assay type: biochemical, ram (seminal vesicles); conditions: enzyme 0.25 μM; for Oxygen Consumption, T = 0: control 221; for Oxygen Consumption, T = 30: T = 30 (min), control 210; for Oxygen Consumption, T = 60: control 211
T2 sequence (P05979 25-600): T1 sequence (P05979 25-600)
Experimental: as §1, §2
A reaction mixture containing a 100 fold excess of the inhibitor(versus the enzyme concentration) (from a 10 mM stock in DMSO) and holo PGHS (5.3 mg/mL) (reconstituted with one equivalent of hematin) was incubated in a eppendorf tube at room temperature. Aliquots of the incubation mixture, at time intervals of t=0, 30 and 60 min were added to the oxygraph cell already containing 1.25 mL Tris HCL, 100 mM, pH 8, at 37° C., 500 μM phenol and 25 μL of 50 μM hematin. The cyclooxygenase reaction was initiated by the addition of 13 μL of 10 mM sodiumarachidonate in 10% MeOH (final concentration of AA was 100 μM). The oxygen consumption was measured from the linear portion of the O2 uptake curve.

[3] = tested on: holo PGHS; conditions: Ser 530 in sheep (Ser 529 in humans); cited from earlier work
[4] = target: T3, holo PGHS (peroxidase activity) (Ovis aries, UniProt P05979); assay: Instantaneous inactivation of peroxidase activity (guaiacol oxidation); assay type: biochemical, ram (seminal vesicles); conditions: for IC50: enzyme 0.25 μM
T3 construct: PGHS was purified from ram seminal vesicles; from tissue; host or cells: ram seminal vesicles
T3 sequence (P05979 25-600): T1 sequence (P05979 25-600)
Experimental: as §1
Enzyme aliquots were added to 100 mM Tris HCl (pH 8) containing […] heme, 500 μM guaiacol in disposible cuvettes. Reaction was initiated by the addition of 400 μM H2 O2.
This reaction mixture was treated with a given concentration of the inhibitor and then as quickly as possible the peroxidase reaction was initiated by the addition of 0.4 mM H2 O2. The initial rates of oxidation were measured for 20 sec at a repeat rate of 1 second. (Table 4)

[5] = target: T4, PGHS (cyclooxygenase activity) (Ovis aries, UniProt P05979); assay: IC50 for inactivation of cyclooxygenase activity of PGHS after 30 min incubation; assay type: biochemical, ram (seminal vesicles)
T4 construct: PGHS was purified from ram seminal vesicles; from tissue; host or cells: ram seminal vesicles
T4 sequence (P05979 25-600): T1 sequence (P05979 25-600)
Experimental: as §1, §2
Varying inhibitor concentrations were incubated with reconstituted holo PGHS (final concentration in the oxygraph cell was 250 nM) at room temperature for 30 min. Aliquots of this incubation mixture were added to the oxygraph cell containing 100 mM Tris-HCl at pH 8 with 500 μm of phenol and 1 μM hematin. The reaction mixture was allowed to reconstitute for 1 min and the cyclooxygenase reaction was initiated by the addition of 100 mM sodium arachidonate. (Table 1)
In all experiments the enzyme concentrations was 0.25 μM.

[6] = tested on: PGHS (cyclooxygenase activity); assay: Inactivation of cyclooxygenase activity of PGHS by cysteine specific reagents; assay type: biochemical
From the text: (§3) Thiyl radicals (as reviewed in Shoeneich, 1992) can be potentially generated from cysteines present in PGHS, in the catabolism of arachidonic acid. […] Site-directed mutagenesis experiments to mutate these cysteines to serines and their corresponding effect on prostaglandin biosynthesis are presently being carried out.

[7] = tested on: PGHS (peroxidase activity); assay: Inactivation of peroxidase activity of PGHS by cysteine specific reagents; assay type: biochemical
From the text: as §3

[8] = tested on: holo PGHS; assay: Inactivation of holo PGHS; assay type: biochemical
From the text: as §3

[9] = tested on: mouse; conditions: doses much below those required by indomethacin; cited from earlier work
[10] = tested on: guinea pigs; conditions: doses much below those required by indomethacin; cited from earlier work
[11] = tested on: cyclooxygenase; conditions: cited from earlier work
[12] = target: T5, cyclooxygenase activity of PGHS (Ovis aries, UniProt P05979); assay: Inhibition of cyclooxygenase activity of PGHS by analog 2; assay type: biochemical
T5 sequence (P05979 25-600): T1 sequence (P05979 25-600)
From the text: Preliminary structure-activity studies on compounds with structural similarity indicate the position of oxygen on the omega side chain and the stereochemistry on the oxobicycloheptane ring as the governing factors in the inhibition.
The basis for the inhibitory activity of a given NSAID depends on the interaction of the NSAID with the active site of the enzyme it inhibits. A working model for the active site of fatty acid cyclooxygenase with the pattern recognition of known inhibitors as well as conformational minimizations of the natural substrate AA has been constructed. The Squibb group recently described a novel series of 7-oxabicycloheptylpro stanoic acid derivatives that inhibit AA-induced platelet aggregation and AA oxygenation by platelet and bovine seminal microsomes. […]

[13] = tested on: PGHS protein; assay: Mechanistic studies: conformational change in the PGHS protein
[14] = cited from earlier work
[15] = enzyme 0.25 μM, 30 min incubation with inhibitor, read-out: IC50 for inactivation of cyclooxygenase activity of PGHS
[16] = read-out: IC50 (aspirin analogs 44 and 45)

2-[2-(N-Maleimidoethoxy)]benzoic acid [Compound 7]
IC50 [1]: 140 µM | Oxygen Consumption, T = 0 ([2]; inhibitor 16 μM): 180 µM/min | Oxygen Consumption, T = 30 ([2]; inhibitor 16 μM): 27 µM/min | Oxygen Consumption, T = 60 (symbol) ([2]; inhibitor 16 μM, T = 60 (min)): --b

CC(=O)Oc1ccccc1C(=O)O [Aspirin]
acylation of Ser 530 of PGHS [3]: inactivates the cyclooxygenase activity of holo PGHS by regioselective acylation of Ser 530

O=C(O)CCCCCN1C(=O)C=CC1=O [Compound 1, N-6-(Maleimido)hexanoic acid]
IC50 [1]: > 800 µM | Oxygen Consumption, T = 0 ([2]; inhibitor 16 μM): 212 µM/min | Oxygen Consumption, T = 30 ([2]; inhibitor 16 μM): 205 µM/min | Oxygen Consumption, T = 60 ([2]; inhibitor 16 μM, T = 60 (min)): 204 µM/min | IC50 [4]: > 800 µM

O=C(O)CCCCCCN1C(=O)C=CC1=O [Compound 2, N-7-(Maleimido)heptanoic acid]
IC50 [1]: 570 µM | Oxygen Consumption, T = 0 ([2]; inhibitor 16 μM): 195 µM/min | Oxygen Consumption, T = 30 ([2]; inhibitor 16 μM): 142 µM/min | Oxygen Consumption, T = 60 ([2]; inhibitor 16 μM, T = 60 (min)): 106 µM/min | IC50 [4]: > 800 µM | remaining activity at 800 µM ([4]; pH 8, at 800 μM): 81%

O=C(O)CCCCCCCCN1C(=O)C=CC1=O [Compound 4, 9-(Maleimido)-1-nonanoic acid]
IC50 [1]: 26 µM | Oxygen Consumption, T = 0 ([2]; inhibitor 10 μM): 203 µM/min | Oxygen Consumption, T = 30 ([2]; inhibitor 10 μM): 121 µM/min | Oxygen Consumption, T = 60 ([2]; inhibitor 10 μM, T = 60 (min)): 68 µM/min

O=C(O)c1ccccc1OCCN1C(=O)C=CC1=O [Compound 6 (Example 1), 2-[2-(N-Maleimidoethoxy)]benzoic acid]
instantaneous inactivation of cyclooxygenase activity [1]: failure

CCCCCCCCN1C(=O)C=CC1=O [Compound 8]
IC50 [5, 15]: 250 µM

CCCCCCCCCN1C(=O)C=CC1=O [Compound 9]
IC50 [5, 15]: 50 µM

CCCCCCCCCCN1C(=O)C=CC1=O [Compound 10]
IC50 [5, 15]: 27 µM

Cc1ccccc1CN1C(=O)C=CC1=O [Compound 11]
IC50 [5, 15]: 9 µM

O=C(O)c1ccc(CN2C(=O)C=CC2=O)cc1 [Compound 12]
IC50 [5, 15]: 12 µM

O=C(O)c1ccccc1OCCN1C(=O)C=CC1=O [Compound 13]
IC50 [5, 15]: 40 µM

O=C(O)CCCCCCCN1C(=O)CCC1=O [Compound 39, N-8-(Succinimido)octanoic acid]
instantaneous inactivation of cyclooxygenase activity [1]: did not inactivate PGHS | inhibition of the enzyme at 500 fold excess ([1]; 500 fold excess): did not inhibit the enzyme, even at a 500 fold excess | instantaneous inactivation of cyclooxygenase activity ([1]; listed as corresponding succinimide): did not display any inactivation at analogous concentrations and at higher concentrations

CC(=O)Oc1cc(N2C(=O)C=CC2=O)ccc1C(=O)O [Compound 44]
Inhibition of cyclooxygenase at 200 μM (footnote a, Table 2) ([5]; 200 μM, 30 min incubation): No significant inhibition observed | IC50 [5, 16]: > 200 µM

CC(=O)Oc1ccc(N2C(=O)C=CC2=O)cc1C(=O)O [Compound 45]
IC50 [5, 16]: 29 µM

CC(=O)n1ccnc1 [N-acetylimidazole]
acylation of Ser 530 of PGHS [3]: did not result in regioselective acetylation

CCN1C(=O)C=CC1=O [NEM, N-ethylmaleimide]
inactivation of cyclooxygenase activity by cysteine specific reagent [6]: time- and concentration-dependent inactivation | inactivation of peroxidase activity by cysteine specific reagent [7]: time- and concentration-dependent inactivation | inactivation of holo PGHS [8]: inactivates holo

CCCCCCOCC1C2CCC(O2)C1CC=CCCCC(=O)O (centres unmarked) [analog 1]
prevention of AA-induced sudden death [9]: prevents AA-induced sudden death in the mouse | prevention of AA-induced changes in lung mechanics [10]: AA-induced changes in lung mechanics in guinea pigs at doses much below those required for similar effects by indomethacin | inhibition of cyclooxygenase activity in vitro [11]: inhibition of cyclooxygenase activity in vitro

CCCCCCOCC1C2CCC(O2)C1CC=CCCC(C)(C)C(=O)O (centres unmarked) [analog 2]
time-dependent inhibition of cyclooxygenase activity [12]: potent time-dependent inhibitor | IC50 ([12]; enzyme concentration 140 nM): 0.08 µM | IC100 ([12]; enzyme concentration 140 nM, read-out: concentration with complete inhibition): 0.15 µM | conformational change in the PGHS protein [13]: induces a conformational change in the PGHS protein | inhibition of cyclooxygenase activity in vitro [11]: displays the same activities as analog 1 | duration of action in vivo, relative to analog 1 [14]: longer duration of action in vivo

N-11-(Maleimido)undecanoic acid [Compound 5]
IC50 [1]: 37 µM | Oxygen Consumption, T = 0 ([2]; inhibitor 10 μM): 207 µM/min | Oxygen Consumption, T = 30 ([2]; inhibitor 10 μM): 178 µM/min | Oxygen Consumption, T = 60 ([2]; inhibitor 10 μM, T = 60 (min)): 81 µM/min
